Common to all, as to format: cell-based, human
One test deals with c-Met. As to the kind of experiment: HGF-induced activation of c-Met in Panc1 cells (blot of activated Met vs total Met). The note with it: peptide 30 nM for 5 min at 37° C. prior to HGF 10 ng/ml for 5 min. Here is the method: (§1) Human adenocarcinoma cells, Panc1, were seeded at 2×10^5 cells per well in a 6-well plate. The day after seeding the cells, they were starved for 24 h. The following day, the cells were treated as indicated with either alga1 or D3alga1, a control peptide (N-A-A-A-E (SEQ ID NO: 37)) at a concentration of 30 nM for 5 min at 37° C. prior to induction with HGF (10 ng/ml) at 37° C. for 5 min. Results are given in FIG. 3 (A: alga1; B: D3alga1).
(§2) Human adenocarcinoma cells, Panc1, were seeded at 2×10^5 cells per well in a 6-well plate. The day after seeding, the cells were starved for 24 h. The following day, the cells were treated as indicated with either D1alga1, D2alga1 or D3alga1, a human CD44v6 14mer (h14mer) or control peptide (N-A-A-A-E (SEQ ID NO: 37)) at a concentration of 30 nM for 5 min at 37° C. prior to induction with HGF (10 ng/ml) at 37° C. for 5 min.

A further test has as its system Erk. Put plainly: HGF-induced activation of Erk in Panc1 cells (blot of activated Erk vs total Erk). The note with it: peptide 30 nM for 5 min at 37° C. prior to HGF 10 ng/ml for 5 min. Here is the method:
as §1, §2

In a further test the test system is Panc 1 cells. Put plainly: Wound healing assay, Example 9 (FIG. 15). The note with it: 500 nM, HGF 100 ng/ml, photos up to 48 hours after induction. Here is the method: Cell migration is connected to angiogenesis where cells need to migrate in order to form new blood vessels. Angiogenesis is related to cancer metastasis.
Panc 1 cells were seeded in 6-well plates at a concentration of 3×10^5 cells per well and were allowed to adhere and form a confluent monolayer. After a starving period of 24 hours, a scratch was inserted using a sterile pipette tip. Medium was aspirated to remove scratched cells and replaced by new starving medium. containing reagents as indicated at a concentration of […] tested for their blocking quality.
The following reagents were added to the medium at a concentration of 500 nM to test their blocking efficiency: D3-epga1, D4-epga1, D2-epal1, D3-epal1, D4-epal1, D3-alga1, D3-alga2, D4-alga2, D5-alga2, D6-alga3, Epga-1, Epal-1, Alga-2 and Alga-3. After 30 min incubation at 37° C., growth factor HGF was added to induce migration (HGF 100 ng/ml). Photos of the cells were taken immediately after scratch (Day 1), 24 hours (Day 2) and 48 hours (D3) after induction using a Canon Power Shot G12 digital camera.

Bridges are numbered along the chain shown (N, C = ends). Where no end group is shown, it is not given here. [ ]: non-standard residue; d: D form.

Take “D1alga1: cyclic CD44v6 5mer containing a D-amino acid at position 1 ([dK]RWHE; lactam N-5)”: the “activation of c-Met” value with c-Met is listed as “blocks activation of c-Met”. Also, the “activation of Erk” value in the test with Erk is “blocks activation of c-Met and Erk”.

Turning to “D2alga1: cyclic CD44v6 5mer containing a D-amino acid at position 2 (K[dR]WHE; lactam N-5)”, in the test on c-Met, the “activation of c-Met” value was “blocks activation of c-Met”. Also, the “activation of Erk” value in the test with Erk was “blocks activation of c-Met and Erk”.

For the substance “D3-epga1: cyclic 5 mer, ep/ga cyclisation, D-amino acid at position 3 per naming scheme (FIG. 13) (KR[dW]HE; lactam 1-5)”, the “blocking of cell migration” value in the test with Panc 1 cells is on record as “efficient in blocking cell migration”.

With “cy[αKGNRWHEγ] (KGNRW[dH]E; lactam N-7) [D6-alga3, cyclisation via N-terminal amino group of K and side chain carboxyl group of E, H is a D-amino acid]”, the “blocking of cell migration” value in the test with Panc 1 cells was “Most efficient blocking of cell migration”.

Take cy[αKNRWHEγ] (lactam N-6) [Alga-2]: the “blocking of cell migration” value in the test on Panc 1 cells is listed as “Most efficient blocking of cell migration”.

Regarding “cy[εKRWHEα]γ] (K[dR]WHE; lactam 1-C; also: cyclised per cy[εKRWHEα]γ], linkage unclear) [D2-epal1]”, the “blocking of cell migration” value in the test with Panc 1 cells was “Most efficient blocking of cell migration”.

Source of the values: patent US10703796B2, “CD44v6-derived cyclic peptides for treating cancers and angiogenesis related diseases” (AMCURE GMBH, priority 2014, dated 2020).
